Article PMC5862592, “CDK8/19 inhibition induces premature G1/S transition and ATR-dependent cell death in prostate cancer cells” (Oncotarget, 2018)
Read-outs that look alike come from different tables or passages of the source.

Key:
Experiment in all cases: biochemical
Set-up in all cases: KINOMEscan active site-directed competition binding assay (DiscoveRx), 456 kinases, per cent of control at 300 nM
Conditions in all cases: read-out: Percent of Control (%)
TNIK = TNIK (Homo sapiens, UniProt Q9UKE5)
Method in brief: (§1)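 Values reflect active-site competition binding from a screen of 456 kinases, with test compounds at a fixed 300 nmol/L.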

YSK1 = target: T1, YSK1 (Homo sapiens, UniProt O00506)
T1 construct: gene STK25
T1 sequence (O00506 whole entry): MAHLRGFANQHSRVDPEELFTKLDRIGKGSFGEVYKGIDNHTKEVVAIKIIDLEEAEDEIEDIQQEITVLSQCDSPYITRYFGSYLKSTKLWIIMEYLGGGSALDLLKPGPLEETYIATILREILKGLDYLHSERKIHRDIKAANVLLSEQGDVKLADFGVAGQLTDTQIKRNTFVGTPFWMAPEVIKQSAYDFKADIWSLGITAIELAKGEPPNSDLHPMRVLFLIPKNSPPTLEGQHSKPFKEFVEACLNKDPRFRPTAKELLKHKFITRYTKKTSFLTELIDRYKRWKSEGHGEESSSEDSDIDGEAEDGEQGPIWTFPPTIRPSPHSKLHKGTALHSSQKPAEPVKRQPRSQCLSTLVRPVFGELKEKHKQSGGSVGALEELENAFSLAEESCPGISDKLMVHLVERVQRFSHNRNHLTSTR
Method in brief: as §1

[1] = target: T2, ABL1(Y253F)-phosphorylated (Homo sapiens, UniProt P00519, Y253F)
T2 construct: phosphorylated
Method in brief: as §1

PAK2 = PAK2 (Homo sapiens, UniProt Q13177)
Method in brief: as §1

EPHA4 = EPHA4 (Homo sapiens, UniProt P54764)
Method in brief: as §1

PFTAIRE2 = target: T3, PFTAIRE2 (Homo sapiens, UniProt Q96Q40)
T3 construct: gene CDK15
Method in brief: as §1

EGFR = EGFR (Homo sapiens, UniProt P00533)
EGFR, sequence (P00533 whole entry): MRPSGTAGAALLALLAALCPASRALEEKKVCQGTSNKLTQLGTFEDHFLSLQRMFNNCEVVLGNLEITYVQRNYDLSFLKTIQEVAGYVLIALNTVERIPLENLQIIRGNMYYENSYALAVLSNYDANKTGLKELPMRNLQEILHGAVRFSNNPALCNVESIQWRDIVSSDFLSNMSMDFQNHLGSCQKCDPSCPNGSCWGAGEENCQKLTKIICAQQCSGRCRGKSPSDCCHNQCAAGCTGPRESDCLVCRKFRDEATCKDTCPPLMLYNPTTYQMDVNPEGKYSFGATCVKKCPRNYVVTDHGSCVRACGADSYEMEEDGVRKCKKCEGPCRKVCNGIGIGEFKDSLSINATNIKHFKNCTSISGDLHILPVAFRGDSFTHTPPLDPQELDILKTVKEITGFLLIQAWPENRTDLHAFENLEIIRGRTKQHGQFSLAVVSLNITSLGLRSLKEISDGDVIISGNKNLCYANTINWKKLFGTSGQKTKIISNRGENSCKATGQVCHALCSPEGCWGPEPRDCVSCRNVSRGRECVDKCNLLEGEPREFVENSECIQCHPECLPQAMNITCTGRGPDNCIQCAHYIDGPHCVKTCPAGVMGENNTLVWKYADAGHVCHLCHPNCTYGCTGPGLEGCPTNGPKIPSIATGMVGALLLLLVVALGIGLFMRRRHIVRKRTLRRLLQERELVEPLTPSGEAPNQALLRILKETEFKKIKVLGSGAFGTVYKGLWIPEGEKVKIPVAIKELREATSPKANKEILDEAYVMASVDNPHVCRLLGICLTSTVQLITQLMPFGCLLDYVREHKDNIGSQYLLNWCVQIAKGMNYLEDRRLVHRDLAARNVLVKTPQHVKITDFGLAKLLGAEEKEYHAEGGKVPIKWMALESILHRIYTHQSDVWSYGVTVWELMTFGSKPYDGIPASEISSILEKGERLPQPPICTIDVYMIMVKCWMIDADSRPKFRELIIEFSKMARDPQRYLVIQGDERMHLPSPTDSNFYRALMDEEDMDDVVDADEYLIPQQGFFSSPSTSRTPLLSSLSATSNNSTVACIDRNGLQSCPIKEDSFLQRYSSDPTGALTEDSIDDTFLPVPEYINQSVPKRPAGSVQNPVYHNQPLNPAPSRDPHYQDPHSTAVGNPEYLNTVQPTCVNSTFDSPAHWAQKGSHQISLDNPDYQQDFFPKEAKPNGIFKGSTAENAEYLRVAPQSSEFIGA
Method in brief: as §1

NEK7 = NEK7 (Homo sapiens, UniProt Q8TDX7)
Method in brief: as §1

MAST1 = MAST1 (Homo sapiens, UniProt Q9Y2H9)
Method in brief: as §1

SRPK2 = SRPK2 (Homo sapiens, UniProt P78362)
Method in brief: as §1

NEK11 = NEK11 (Homo sapiens, UniProt Q8NG66)
NEK11, sequence (Q8NG66 whole entry): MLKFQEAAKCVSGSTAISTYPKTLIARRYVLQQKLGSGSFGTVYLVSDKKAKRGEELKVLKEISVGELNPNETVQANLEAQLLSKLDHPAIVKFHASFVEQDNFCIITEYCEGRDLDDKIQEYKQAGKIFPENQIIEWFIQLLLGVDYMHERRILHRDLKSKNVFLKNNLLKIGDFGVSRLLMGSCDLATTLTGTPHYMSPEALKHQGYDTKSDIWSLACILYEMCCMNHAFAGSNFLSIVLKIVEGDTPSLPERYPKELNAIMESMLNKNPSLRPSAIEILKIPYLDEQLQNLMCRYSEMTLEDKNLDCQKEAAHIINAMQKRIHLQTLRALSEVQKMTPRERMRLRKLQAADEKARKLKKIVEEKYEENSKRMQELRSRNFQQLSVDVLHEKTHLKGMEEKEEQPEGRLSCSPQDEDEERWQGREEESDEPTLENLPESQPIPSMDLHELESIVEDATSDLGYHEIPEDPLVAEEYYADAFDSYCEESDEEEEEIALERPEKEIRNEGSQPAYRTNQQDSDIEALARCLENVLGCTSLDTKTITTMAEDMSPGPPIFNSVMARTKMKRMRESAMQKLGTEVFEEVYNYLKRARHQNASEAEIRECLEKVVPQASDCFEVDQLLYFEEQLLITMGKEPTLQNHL
Method in brief: as §1

SRPK1 = SRPK1 (Homo sapiens, UniProt Q96SB4)
SRPK1, sequence (Q96SB4 whole entry): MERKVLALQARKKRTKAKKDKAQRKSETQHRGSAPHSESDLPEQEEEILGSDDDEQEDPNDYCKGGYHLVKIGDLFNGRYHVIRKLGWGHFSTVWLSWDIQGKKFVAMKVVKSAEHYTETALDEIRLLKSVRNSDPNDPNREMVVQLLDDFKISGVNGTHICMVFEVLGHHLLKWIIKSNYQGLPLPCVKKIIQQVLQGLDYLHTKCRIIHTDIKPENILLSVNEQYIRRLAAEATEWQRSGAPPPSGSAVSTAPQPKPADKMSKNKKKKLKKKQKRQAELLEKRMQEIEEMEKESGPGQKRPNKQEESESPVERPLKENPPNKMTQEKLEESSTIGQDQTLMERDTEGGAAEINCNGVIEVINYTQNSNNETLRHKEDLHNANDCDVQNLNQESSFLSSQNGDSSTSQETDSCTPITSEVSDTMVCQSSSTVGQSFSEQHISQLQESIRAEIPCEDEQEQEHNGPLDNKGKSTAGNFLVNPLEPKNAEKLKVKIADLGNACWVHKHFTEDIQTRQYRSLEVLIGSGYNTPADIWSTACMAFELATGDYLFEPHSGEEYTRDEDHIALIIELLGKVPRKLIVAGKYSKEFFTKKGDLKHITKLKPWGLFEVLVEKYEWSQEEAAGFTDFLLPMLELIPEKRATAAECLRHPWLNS
Method in brief: as §1

[2] = target: T4, RSK3(Kin.Dom.1-N-terminal) (Homo sapiens, UniProt Q15349)
T4 construct: gene RPS6KA2; Kin.Dom.1-N-terminal
T4 sequence (Q15349 whole entry): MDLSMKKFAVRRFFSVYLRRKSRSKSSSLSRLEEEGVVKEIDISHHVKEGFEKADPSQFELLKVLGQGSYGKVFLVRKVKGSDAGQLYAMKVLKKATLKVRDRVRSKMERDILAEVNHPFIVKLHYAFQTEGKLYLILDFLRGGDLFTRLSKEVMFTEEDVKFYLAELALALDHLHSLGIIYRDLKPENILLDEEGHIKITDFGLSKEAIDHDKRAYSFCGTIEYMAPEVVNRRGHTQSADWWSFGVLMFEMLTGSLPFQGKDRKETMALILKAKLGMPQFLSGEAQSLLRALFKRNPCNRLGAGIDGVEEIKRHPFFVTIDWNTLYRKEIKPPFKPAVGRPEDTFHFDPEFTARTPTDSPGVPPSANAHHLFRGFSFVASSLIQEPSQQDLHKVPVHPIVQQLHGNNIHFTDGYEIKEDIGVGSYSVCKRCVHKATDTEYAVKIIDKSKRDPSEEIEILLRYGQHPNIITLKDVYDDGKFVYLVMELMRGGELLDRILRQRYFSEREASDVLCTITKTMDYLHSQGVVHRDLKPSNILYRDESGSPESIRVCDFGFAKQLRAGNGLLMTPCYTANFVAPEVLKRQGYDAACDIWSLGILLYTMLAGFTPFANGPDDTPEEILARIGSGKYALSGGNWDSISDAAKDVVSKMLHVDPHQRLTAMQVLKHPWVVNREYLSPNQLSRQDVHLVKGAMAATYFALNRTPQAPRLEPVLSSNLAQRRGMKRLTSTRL
Method in brief: as §1

SNARK = target: T5, SNARK (Homo sapiens, UniProt Q9H093)
T5 construct: gene NUAK2
T5 sequence (Q9H093 whole entry): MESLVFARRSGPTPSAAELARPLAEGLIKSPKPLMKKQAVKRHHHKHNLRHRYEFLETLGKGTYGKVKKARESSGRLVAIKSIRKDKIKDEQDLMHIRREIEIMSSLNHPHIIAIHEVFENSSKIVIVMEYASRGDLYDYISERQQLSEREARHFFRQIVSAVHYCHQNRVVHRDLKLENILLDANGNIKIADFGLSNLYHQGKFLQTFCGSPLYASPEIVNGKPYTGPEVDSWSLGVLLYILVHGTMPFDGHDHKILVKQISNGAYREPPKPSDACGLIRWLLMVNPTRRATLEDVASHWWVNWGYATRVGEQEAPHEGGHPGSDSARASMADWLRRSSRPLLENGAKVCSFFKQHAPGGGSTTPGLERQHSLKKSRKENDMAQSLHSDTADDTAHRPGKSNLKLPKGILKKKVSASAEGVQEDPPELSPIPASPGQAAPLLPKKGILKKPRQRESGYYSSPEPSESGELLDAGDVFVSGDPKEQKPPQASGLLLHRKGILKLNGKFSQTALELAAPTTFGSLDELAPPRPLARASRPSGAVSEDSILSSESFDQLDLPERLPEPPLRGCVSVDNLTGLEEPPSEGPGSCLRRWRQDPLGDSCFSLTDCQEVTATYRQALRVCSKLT
Method in brief: as §1

ICK = target: T6, ICK (Homo sapiens, UniProt Q9UPZ9)
T6 construct: gene CILK1
Method in brief: as §1

MARK2 = MARK2 (Homo sapiens, UniProt Q7KZI7)
Method in brief: as §1

CHEK1 = CHEK1 (Homo sapiens, UniProt O14757)
CHEK1, sequence (O14757 whole entry): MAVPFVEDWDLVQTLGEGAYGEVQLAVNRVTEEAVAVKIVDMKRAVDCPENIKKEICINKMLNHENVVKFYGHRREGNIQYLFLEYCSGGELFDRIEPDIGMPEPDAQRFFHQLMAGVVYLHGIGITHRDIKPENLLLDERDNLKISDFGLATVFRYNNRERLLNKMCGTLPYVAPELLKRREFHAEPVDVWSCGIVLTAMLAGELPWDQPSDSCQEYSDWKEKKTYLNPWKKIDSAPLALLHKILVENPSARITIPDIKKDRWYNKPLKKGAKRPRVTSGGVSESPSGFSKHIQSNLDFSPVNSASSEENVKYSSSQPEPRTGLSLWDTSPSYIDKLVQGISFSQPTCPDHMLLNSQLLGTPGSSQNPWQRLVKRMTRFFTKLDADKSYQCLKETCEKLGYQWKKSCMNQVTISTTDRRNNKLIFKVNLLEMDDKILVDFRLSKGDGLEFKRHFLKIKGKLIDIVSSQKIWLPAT
Method in brief: as §1

FES = FES (Homo sapiens, UniProt P07332)
Method in brief: as §1

MST4 = target: T7, MST4 (Homo sapiens, UniProt Q9P289)
T7 construct: gene STK26
Method in brief: as §1

MST1 = target: T8, MST1 (Homo sapiens, UniProt Q13043)
T8 construct: gene STK4
Method in brief: as §1

MARK1 = MARK1 (Homo sapiens, UniProt Q9P0L2)
Method in brief: as §1

KIT(V559D) = KIT(V559D) (Homo sapiens, UniProt P10721, V559D)
Method in brief: as §1

With `Cc1ncccc1Oc1sc(C(N)=O)c2c1-c1c(cnn1C)CC2` [T-474, 1-methyl-8-((2-methylpyridin-3-yl)oxy)-4,5-dihydro-1H-thieno[3,4-g]indazole-6-carboxamide] the remaining binding at 0.3 µM (TNIK) was 100%, the remaining binding at 0.3 µM (YSK1) was 94% and the remaining binding at 0.3 µM [1] was 100%. For the same compound, the remaining binding at 0.3 µM (PAK2) was 88%, the remaining binding at 0.3 µM (EPHA4) was 100% and the remaining binding at 0.3 µM (PFTAIRE2) was 100%. The remaining binding at 0.3 µM (EGFR) was 61%, the remaining binding at 0.3 µM (NEK7) was 100% and the remaining binding at 0.3 µM (MAST1) was 100%. It also gave a remaining binding at 0.3 µM (SRPK2) of 100%, a remaining binding at 0.3 µM (NEK11) of 100% and a remaining binding at 0.3 µM (SRPK1) of 100%. The remaining binding at 0.3 µM [2] was 100%, the remaining binding at 0.3 µM (SNARK) was 74% and the remaining binding at 0.3 µM (ICK) was 100%. The remaining binding at 0.3 µM (MARK2) was 100%, the remaining binding at 0.3 µM (CHEK1) was 100% and the remaining binding at 0.3 µM (FES) was 100%. For the same compound, the remaining binding at 0.3 µM (MST4) was 64%, the remaining binding at 0.3 µM (MST1) was 100% and the remaining binding at 0.3 µM (MARK1) was 81%. The remaining binding at 0.3 µM (KIT(V559D)) was 100%.
`O=C(/C=C/c1cnccc1-c1ccc(F)cc1)Nc1ccc(CCc2nnco2)cc1` [T-418, (2E)-3-(4-(4-fluorophenyl)pyridin-3-yl)-N-(4-(2-(1,3,4-oxadiazol-2-yl)ethyl)phenyl)acrylamide] gave a remaining binding at 0.3 µM (TNIK; sheet T-418) of 100%, a remaining binding at 0.3 µM (YSK1; sheet T-418) of 97% and a remaining binding at 0.3 µM ([1]; sheet T-418) of 98%. It also gave a remaining binding at 0.3 µM (PAK2; sheet T-418) of 70%, a remaining binding at 0.3 µM (EPHA4; sheet T-418) of 100% and a remaining binding at 0.3 µM (PFTAIRE2; sheet T-418) of 92%. It also gave a remaining binding at 0.3 µM (EGFR; sheet T-418) of 59%, a remaining binding at 0.3 µM (NEK7; sheet T-418) of 100% and a remaining binding at 0.3 µM (MAST1; sheet T-418) of 100%. It also gave a remaining binding at 0.3 µM (SRPK2; sheet T-418) of 50%, a remaining binding at 0.3 µM (NEK11; sheet T-418) of 100% and a remaining binding at 0.3 µM (SRPK1; sheet T-418) of 61%. The remaining binding at 0.3 µM ([2]; sheet T-418) was 79%, the remaining binding at 0.3 µM (SNARK; sheet T-418) was 60% and the remaining binding at 0.3 µM (ICK; sheet T-418) was 100%. For the same compound, the remaining binding at 0.3 µM (MARK2; sheet T-418) was 100%, the remaining binding at 0.3 µM (CHEK1; sheet T-418) was 100% and the remaining binding at 0.3 µM (FES; sheet T-418) was 83%. It also gave a remaining binding at 0.3 µM (MST4; sheet T-418) of 63%, a remaining binding at 0.3 µM (MST1; sheet T-418) of 89% and a remaining binding at 0.3 µM (MARK1; sheet T-418) of 100%. The remaining binding at 0.3 µM (KIT(V559D); sheet T-418) was 100%.
